Data from patent publication US20260216368A1, “BIS-ESTER AND AMIDE CATIONIC LIPIDS” (SANOFI PASTEUR INC., priority 2022, published 2026).

Tests used:
[1] = tested on: Human erythropoietin (hEPO) levels in sera; assay: Delivery of hEPO mRNA by intramuscular administration of lipid nanoparticles; serum hEPO by ELISA; format: in vivo, Mouse; details: serum, 6 hours post dose, 0.1 μg/animal hEPO mRNA LNP, IM, mice, n=4
Experimental: WO2022/099003 A1 describes an in vivo assay for intramuscular administration (e.g. on page 46, paragraph [00206]). Further details of the intramuscular experiment performed in this application are provided below.
Treatment Regimen: On Day 1, animals from Groups 1-8 were dosed via intramuscular injection while under light isoflurane anesthesia according to the study design table above. Animals in Groups 2-8 were injected with EPO in the right leg only. Group 1 animals received saline control.
Interim Sample Collections: Interim whole blood (~50 μL) was collected by tail snip or saphenous vein at 6 hours post dose administration (±5%). Blood samples were collected into serum separator tubes, allowed to clot at room temperature for at least 10 minutes, centrifuged at ambient temperature at minimum 1000 g for 10 minutes and the serum was extracted. All serum samples were stored at nominally −70° C. until analysis hEPO by the Testing Facility. The results of the EPO analysis were included in the Data Submission.
Terminal Blood Collections: Whole blood was collected via cardiac puncture into serum separator tube, allowed to clot at room temperature for at least 10 minutes, centrifuged at ambient temperature at minimum 1000 g for 10 minutes and the serum was extracted. Serum samples were stored at nominally −70° C. until analyzed for hEPO by the Test Facility.
ELISA Assay: Human erythropoietin (hEPO) levels in sera samples were determined by ELISA kit (R&D systems, Cat #DEP-00) according to the manufactory instruction and the results were included in the Data Submission. The “shaker” protocol was used. The serum samples were diluted between 1:40 and 1:100.
The ability of the further exemplary lipid nanoparticles in Example 54 to deliver hEPO mRNA by intramuscular administration was tested in accordance with the experimental protocol set out in Example 52.

[2] = RiboGreen assay, % encapsulation of mRNA in lipid nanoparticles; format: physicochemical; details: Table 3, further LNPs; hEPO mRNA LNP, Cationic Lipid:DMG-PEG2000:Cholesterol:DOPE=40:1.5:28.5:30, N/P ratio 4, Process A
Source text: In embodiments, the lipid nanoparticle encapsulates a nucleic acid, optionally an mRNA encoding a peptide or protein. In embodiments, the peptide is an antigen. In embodiments, the lipid nanoparticle encapsulates an mRNA encoding a peptide or protein. As used herein, the phrase “encapsulation percentage” refers to the fraction of therapeutic agent (e.g. mRNA) that is effectively encapsulated within a liposomal-based vehicle (e.g. a lipid nanoparticle) relative to the initial fraction of therapeutic agent present in the lipid phase. In embodiments, the lipid nanoparticles have an encapsulation percentage for mRNA of at least 50%. In embodiments, the lipid nanoparticles have an encapsulation percentage for mRNA of at least 55%. In embodiments, the lipid nanoparticles have an encapsulation percentage for mRNA of at least 60%. In embodiments, the lipid nanoparticles have an encapsulation percentage for mRNA of at least 65%. In embodiments, the lipid nanoparticles have an encapsulation percentage for mRNA of at least 70%. In embodiments, the lipid nanoparticles have an encapsulation percentage for mRNA of at least 75%. In embodiments, the lipid nanoparticles have an encapsulation percentage for mRNA of at least 80%. In embodiments, the lipid nanoparticles have an encapsulation percentage for mRNA of at least 85%. In embodiments, the lipid nanoparticles have an encapsulation percentage for mRNA of at least 90%. In embodiments, the lipid nanoparticles have an encapsulation percentage for mRNA of at least 95%. In embodiments, the encapsulation percentage is calculated by performing the Ribogreen assay (Invitrogen) with and without the presence of 0.1% Triton-X 100.
The RiboGreen Assay is a fluorescence-based method for the determination of mRNA concentration (Total and Free) and % encapsulation using Quant-iT™ RiboGreen® RNA reagent in mRNA containing lipid nanoparticles.
• To each of the standards (Blank, mRNA-1, mRNA-2. mRNA-3, mRNA-4, mRNA-5) and Samples (free mRNA and total mRNA), add 1.0 mL of 200-fold Ribogreen Reagent Solution and gently mix by inversion. This is a 2× Dilution. • Add 200 μL of each standard and sample in triplicate using the reverse pipetting technique in a 96-well Costar Black with Clear Background Plate. Ensure no bubbles are present in the plate before the fluorescence reading. • Read the fluorescence signal using the below instrument parameters: • Read Type: Fluorescence, Bottom Read • Excitation: 485 nm; Cut-off: 515 nm; Emission: 530 nm • Plate Type: 96-well Costar Black with Clear Background
The average fluorescence from each calibration standard is plotted against the concentration to generate a linear calibration curve using the MS Excel software. The coefficient of determination (R^2) of calibration curve must be R^2>0.99.
[formula] • Where, • Y=average fluorescence value • m: slope • x: concentration (pg/mL) • c: y-intercept • Using the linear equation, calculate the concentration of free and total mRNA concentration in the test sample by replacing the y value in the equation with the average fluorescence value of each respective sample • Once the concentration is determined, the actual concentration in the sample can be back-calculated by multiplying the concentration in the test sample with the dilution factor (DF) as follows:
[formula] • Concentration of encapsulated mRNA can be determined by subtracting the concentration of free mRNA from the total mRNA. • % Encapsulation can then be calculated by taking the ratio of encapsulated mRNA over total mRNA and multiplying the result with 100.

[3] = DLS size and polydispersity of hEPO mRNA lipid nanoparticles; format: physicochemical; details: Table 3, further LNPs; hEPO mRNA LNP, Cationic Lipid:DMG-PEG2000:Cholesterol:DOPE=40:1.5:28.5:30, N/P ratio 4, Process A
Experimental: The lipid nanoparticles in the examples of the present invention were formulated using Process A of WO 2018/089801 (see, e.g., Example 1 and FIG. 1 of WO 2018/089801). Process A (“A”) relates to a conventional method of encapsulating mRNA by mixing mRNA with a mixture of lipids, without first pre-forming the lipids into lipid nanoparticles. In an exemplary process, an ethanol lipid solution and an aqueous buffered solution of mRNA were prepared separately. A solution of mixture of lipids (cationic lipid, helper lipids, zwitterionic lipids, PEG lipids etc.) was prepared by dissolving lipids in ethanol. The mRNA solution was prepared by dissolving the mRNA in citrate buffer. Then, these two solutions were mixed using a pump system. In some instances, the two solutions were mixed using a gear pump system. In certain embodiments, the two solutions were mixing using a ‘T’ junction (or “Y” junction). The mixture was then purified by diafiltration with a TFF process. The resultant formulation concentrated and stored at 2-8° C. until further use.
(§1) Lipid nanoparticle formulations of Table 1 were prepared by Process A. More specifically, an ethanolic solution of a mixture of lipids including DMG-PEG-2000, cationic lipid, cholesterol, and phosphatidylethanolamine (DOPE) in a ratio of 1.5:40:28.5:30 were combined with an aqueous buffered solution (1 mM Citrate and 150 mM NaCl) of target mRNA at an acidic pH (4.5) under controlled conditions to yield a dispersion of uniform lipid nanoparticles (LNPs). Upon ultrafiltration and diafiltration into the final buffer, the resulting nanoparticle dispersions were diluted to required concentration using the final buffer (10% Trehalose), sterile filtered and stored frozen at −80° C. until use.
All of the lipid nanoparticle formulations comprised hEPO mRNA and the different lipids in following mol % ratios: Cationic Lipid: DMG-PEG2000; Cholesterol:DOPE=40:1.5:28.5:30.
DLS measurements were performed using a Malvern Instruments Zetasizer with a backscattering detector angle of 173° and a 4-mW, 633-nm He—Ne laser (Worcestershire, UK). The samples were analyzed by diluting in 10% Trehalose and measuring the size and Poly dispersity Index (PDI) in an optical grade polystyrene cuvette.
The following lipid nanoparticles were formulated according to Example 51.
as §1, with “Table 3” for “Table 1”

Compound | hEPO 6 Hr (ng/mL) Mean ([1]; fourth occasion) [ng/mL] | Encapsulation Percentage (%) [2] [%] | PDI [3] | Size (nm) [3] [nm] | hEPO 6 Hr (ng/mL) Mean ([1]; second occasion) [ng/mL] | hEPO 6 Hr (ng/mL) Mean ([1]; fifth occasion) [ng/mL] | hEPO 6 Hr (ng/mL) Mean ([1]; first occasion) [ng/mL] | hEPO 6 Hr (ng/mL) Mean ([1]; third occasion) [ng/mL]
CCCCCCCCCCC(O)CN(CCCOC(=O)[C@H](CCc1ccc(O)cc1)NC(=O)CCCN(CC(O)CCCCCCCCCC)CC(O)CCCCCCCCCC)CC(O)CCCCCCCCCC (stereo partly drawn) [Compound C, 3-[bis(2-hydroxydodecyl)amino]propyl (S)-2-{4-[bis(2-hydroxydodecyl)amino]butyrylamino}-4-(p-hydroxyphenyl)butyrate] | 37.2 | 82 | 0.093 | 108 | – | – | – | –
CCCCCCCCCCC(O)CN(CCCOC(=O)[C@H](Cc1c[nH]c2ccccc12)NC(=O)CCCN(CC(O)CCCCCCCCCC)CC(O)CCCCCCCCCC)CC(O)CCCCCCCCCC (stereo partly drawn) [Compound CI, 3-(bis(2-hydroxydodecyl)amino)propyl (4-(bis(2-hydroxydodecyl)amino)butanoyl)-L-tryptophanate] | – | 85 | 0.155 | 135 | 40.5 | – | – | –
CCCCCCCCCCC(O)CN(CCCOC(=O)N[C@@H](Cc1c[nH]cn1)C(=O)OCCCN(CC(O)CCCCCCCCCC)CC(O)CCCCCCCCCC)CC(O)CCCCCCCCCC (stereo partly drawn) [Compound CIII, 3-(bis(2-hydroxydodecyl)amino)propyl ((3-(bis(2-hydroxydodecyl)amino)propoxy)carbonyl)-L-histidinate] | 15.4 | 91 | 0.126 | 93 | – | – | – | –
CCCCCCCCCCCOC(=O)CCCC(O)CN(CCCCN(C)C(=O)CN(C)CC(=O)N(C)CCCCN(CC(O)CCCCCC(=O)OC(CCCCCCCC)CCCCCCCC)CC(O)CCCC(=O)OCCCCCCCCCCC)CC(O)CCCCCC(=O)OC(CCCCCCCC)CCCCCCCC (stereo not drawn) [Compound LXXVII, di(heptadecan-9-yl) 7,27-dihydroxy-9,25-bis(2-hydroxy-6-oxo-6-(undecyloxy)hexyl)-14,17,20-trimethyl-15,19-dioxo-9,14,17,20,25-pentaazatritriacontanedioate] | – | 99 | 0.137 | 114 | – | 45.6 | – | –
CCCCCCCCCCC(O)CN(CCCNC(=O)CC(C)(C)CC(=O)NCCCN(CC(O)CCCCCCCCCC)CC(O)CCCCCCCCCC)CC(O)CCCCCCCCCC (stereo not drawn) [Compound LXXXVII, N,N′-bis({3-[bis(2-hydroxydodecyl)amino]propyl})-3,3-dimethylpentanediamide] | – | 88 | 0.111 | 123 | – | – | 29.1 | –
CCCCCCCCCCC(=O)OCCCCC(O)CN(CCCCNC(=O)CC(C)(O)CC(=O)NCCCCN(CC(O)CCCCCOC(=O)C(CCCCCCCC)CCCCCCCC)CC(O)CCCCOC(=O)CCCCCCCCCC)CC(O)CCCCCOC(=O)C(CCCCCCCC)CCCCCCCC (stereo not drawn) [Compound XCIV] | – | 96 | 0.085 | 138 | – | 36.4 | – | –
CCCCCCCCCCC(O)CN(CCCOC(=O)[C@H](Cc1ccccc1)NC(=O)CCCN(CC(O)CCCCCCCCCC)CC(O)CCCCCCCCCC)CC(O)CCCCCCCCCC (stereo partly drawn) [Compound XCV, 3-[bis(2-hydroxydodecyl)amino]propyl (S)-2-{4-[bis(2-hydroxydodecyl)amino]butyrylamino}-3-phenylpropionate] | 22.4 | 66 | 0.191 | 94 | – | – | – | –
CCCCCCCCCCC(O)CN(CCCOC(=O)[C@H](CCc1ccccc1)NC(=O)CCCN(CC(O)CCCCCCCCCC)CC(O)CCCCCCCCCC)CC(O)CCCCCCCCCC (stereo partly drawn) [Compound XCVI, 3-(bis(2-hydroxydodecyl)amino)propyl (2S)-2-(4-(bis(2-hydroxydodecyl)amino)butanamido)-4-phenylbutanoate] | 37.3 | 85 | 0.166 | 123 | – | – | – | –
CCCCCCCCCCC(O)CN(CCCOC(=O)N[C@@H](Cc1ccccc1)C(=O)OCCCN(CC(O)CCCCCCCCCC)CC(O)CCCCCCCCCC)CC(O)CCCCCCCCCC (stereo partly drawn) [Compound XCVII, 3-(bis(2-hydroxydodecyl)amino)propyl ((3-(bis(2-hydroxydodecyl)amino)propoxy)carbonyl)-L-phenylalaninate] | – | 83 | 0.101 | 125 | – | – | – | 16.0
